The values that follow come from PubChem BioAssay (NCI).

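Assay format: 96-well plates, 48-hour exposure. GI50 is the concentration that inhibits growth by half. At the TGI there is no net growth.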 Where only a bound is given, the exact number is not on record here.

Some test systems named below: EKVX NSCLC; HS 578T breast; KM12 colon; MALME-3M melanoma; RPMI-8226 leukemia; SK-MEL-2 melanoma; SR leukemia.
Holding throughout (assay): NCI tumour cell line growth inhibition, 48 h

For the molecule `C=C(C)C1CCC2(C(=O)O)CCC3(C)C(CCC4C5(C)CCC(OC(=O)NCc6ccccc6)C(C)(C)C5CCC43C)C12` (stereo not drawn), the GI50 is 1.71 µM with EKVX NSCLC; 3.62 µM in the test on HS 578T breast; 2.23 µM in the test with KM12 colon; 5.5 µM with MALME-3M melanoma; 0.757 µM in the test on RPMI-8226 leukemia; 5.46 µM in the test on SK-MEL-2 melanoma. The GI50 in the test with SR leukemia was 2.22 µM. Also, the TGI was above 100 µM in the test with EKVX NSCLC; above 100 µM in the test on HS 578T breast; 12.2 µM in the test on KM12 colon; 54.1 µM in the test with MALME-3M melanoma; 6.49 µM in the test on RPMI-8226 leukemia; above 100 µM in the test on SK-MEL-2 melanoma. In the test with SR leukemia, this molecule showed a TGI above 100 µM.
With `N#Cc1cccc(NC(=O)c2cc(-c3ccc(F)cc3F)ccc2O)c1`, the GI50 in the test on EKVX NSCLC was 2.65 µM; with HS 578T breast it was 2.31 µM; in the test on KM12 colon, 3 µM; with MALME-3M melanoma, 1.44 µM; with RPMI-8226 leukemia it was 0.675 µM; in the test with SK-MEL-2 melanoma it was 1.76 µM. The GI50 with SR leukemia was 3.72 µM. The TGI in the test with EKVX NSCLC was 10.9 µM; in the test on HS 578T breast it was 8.91 µM; in the test on KM12 colon it was 10.8 µM; in the test on MALME-3M melanoma, 5.48 µM; in the test with RPMI-8226 leukemia it was 3.16 µM; in the test with SK-MEL-2 melanoma it was 5.49 µM. The same molecule registered a TGI with SR leukemia of 89.2 µM.
`O=C1OC(c2ccco2)=N/C1=C\c1cccc([N+](=O)[O-])c1`: the TGI in the test with EKVX NSCLC, with HS 578T breast, in the test with KM12 colon, with MALME-3M melanoma, with RPMI-8226 leukemia and with SK-MEL-2 melanoma was above 100 µM each time. In the test on SR leukemia, the TGI is above 100 µM.
For the molecule `C/C(=N\Nc1ccc(Cl)cn1)c1ccccn1`, the GI50 was 0.0516 µM in the test with EKVX NSCLC; 0.616 µM in the test with HS 578T breast; 0.41 µM in the test on KM12 colon; 0.111 µM in the test with MALME-3M melanoma; 0.0572 µM in the test on RPMI-8226 leukemia; 0.72 µM in the test on SK-MEL-2 melanoma. In the test on SR leukemia, the GI50 is 0.0556 µM. For the same molecule, the TGI was above 83.7 µM in the test with EKVX NSCLC; above 73.8 µM in the test on HS 578T breast; 18.1 µM in the test with KM12 colon; 44.1 µM in the test with MALME-3M melanoma; 12.3 µM with RPMI-8226 leukemia; above 100 µM in the test on SK-MEL-2 melanoma. The same molecule registered a TGI with SR leukemia above 40.9 µM.
In the case of `Cc1ccc(C(=O)Nc2ccc(CN3CCN(C)CC3)c(C(F)(F)F)c2)cc1C#Cc1cnc(N)c2ccccc12`, the GI50 in the test with EKVX NSCLC was 0.514 µM; in the test with HS 578T breast, 0.647 µM; in the test on KM12 colon, 0.377 µM; in the test on MALME-3M melanoma it was 0.248 µM; in the test on RPMI-8226 leukemia it was 0.736 µM; in the test on SK-MEL-2 melanoma, 0.367 µM. For the same molecule, the GI50 in the test on SR leukemia was 0.134 µM. In addition, the TGI with EKVX NSCLC turned out to be 1.28 µM; with HS 578T breast, 2.07 µM; in the test on KM12 colon, 1.08 µM; in the test on MALME-3M melanoma it was 0.951 µM; with RPMI-8226 leukemia, 2.08 µM; with SK-MEL-2 melanoma, 1.55 µM. Besides, in the test on SR leukemia, the TGI came out at 2.66 µM.
Consider `CO[C@H]1C=C[C@@]23c4cc5c(cc4CO[C@]2(O)CN(C)[C@H]3C1)OCO5`, for which the TGI in the test with EKVX NSCLC, in the test on HS 578T breast, in the test with KM12 colon, in the test on MALME-3M melanoma, in the test on RPMI-8226 leukemia and in the test with SK-MEL-2 melanoma was above 100 µM throughout.
With `COC(=O)C(NC(=O)c1ccccc1)c1ccco1` (stereo not drawn), the TGI with EKVX NSCLC, in the test on HS 578T breast, in the test with KM12 colon, with MALME-3M melanoma, in the test with RPMI-8226 leukemia and in the test with SR leukemia was above 100 µM in each case.
Take `Cc1ccc(NC(=O)c2sc3nc(C)c(C(O)c4ccccc4)cc3c2N)cc1` (stereo not drawn): the GI50 with EKVX NSCLC is 0.733 µM; in the test on HS 578T breast, 0.327 µM; in the test with KM12 colon, 0.452 µM; in the test with MALME-3M melanoma, 0.476 µM; with RPMI-8226 leukemia, 0.421 µM; in the test with SK-MEL-2 melanoma, 1.32 µM. In the test on SR leukemia, the GI50 was 0.283 µM. In addition, the TGI in the test with EKVX NSCLC is above 100 µM; with HS 578T breast, 10.3 µM; in the test with KM12 colon, above 61.9 µM; in the test with MALME-3M melanoma, 53.7 µM; with RPMI-8226 leukemia it was 43.3 µM; with SK-MEL-2 melanoma, 67.3 µM. The TGI in the test on SR leukemia was above 25.6 µM.
For the molecule `Cc1nc(-c2ccccc2)c(-c2ccccc2)s1`, the TGI with EKVX NSCLC is 69.4 µM; in the test on HS 578T breast, 47.2 µM; with KM12 colon, 71.2 µM; with MALME-3M melanoma, 46.8 µM; in the test with RPMI-8226 leukemia it was 37.5 µM; in the test with SK-MEL-2 melanoma, 32.8 µM.
As to `CC[CH2][Sn]([Cl])([Cl])[CH2]CC.Oc1ccccc1C=NCCN=Cc1ccccc1O`, the GI50 is 12.9 µM in the test on EKVX NSCLC; 2.33 µM in the test on HS 578T breast; 12.7 µM in the test with KM12 colon; 1.57 µM in the test on MALME-3M melanoma; 3.35 µM in the test with RPMI-8226 leukemia; 5.45 µM with SR leukemia. For the same molecule, the TGI in the test on EKVX NSCLC is 27.3 µM; in the test on HS 578T breast, 9.09 µM; in the test with KM12 colon, 25.9 µM; in the test with MALME-3M melanoma it was 4.61 µM; in the test with RPMI-8226 leukemia it was 8.33 µM; in the test on SR leukemia it was above 100 µM.
Consider `Cn1cnc([N+](=O)[O-])c1[Se]c1nc(N)nc2c1ncn2C1OC(CO)C(O)C1O` (stereo not drawn), for which the TGI in the test on EKVX NSCLC, with HS 578T breast, in the test with KM12 colon, in the test on MALME-3M melanoma, in the test with RPMI-8226 leukemia and with SK-MEL-2 melanoma was above 100 µM in each case. This molecule came in with a TGI in the test on SR leukemia above 100 µM.
`COc1ccc(-c2nnc(COc3ccc(NC(=O)Nc4ccc(Cl)c(C(F)(F)F)c4)cc3F)o2)cc1`: the GI50 with HS 578T breast was 3.26 µM; in the test on KM12 colon it was 2.31 µM; with MALME-3M melanoma it was 2.72 µM; in the test on RPMI-8226 leukemia it was 1.53 µM; in the test with SK-MEL-2 melanoma, 3.61 µM; with SR leukemia, 1.39 µM. Further, the TGI in the test with HS 578T breast came to 18.1 µM; in the test with KM12 colon it was 11 µM; in the test with MALME-3M melanoma it was 7.63 µM; in the test on RPMI-8226 leukemia, 5 µM; in the test on SK-MEL-2 melanoma it was 9.87 µM; with SR leukemia, 4.09 µM.
With `COc1cc2c(c(OC)c1OC)-c1c(cc3c(c1OC)OCO3)C1OC2C(C)C1C` (stereo not drawn) (tested in a mixture with another compound), the TGI in the test with EKVX NSCLC, in the test on HS 578T breast, in the test on KM12 colon, with MALME-3M melanoma, in the test on RPMI-8226 leukemia and in the test on SK-MEL-2 melanoma was above 100 µM throughout. For the same molecule, the TGI in the test on SR leukemia was above 100 µM.
